Data published in patent US8741897B2, “Glucocorticoid mimetics, methods of making them, pharmaceutical compositions and uses thereof” (Boehringer Ingelheim Pharmaceuticals Inc., priority 2003, dated 2014).
One block for each compound: values may come before it.

Target: T1, human glucocorticoid receptor (GR) complex (Homo sapiens, UniProt P04150)
T1 construct: made in house; host or cells: insect expression system (baculovirus lysate)
T1 sequence (P04150 1-777): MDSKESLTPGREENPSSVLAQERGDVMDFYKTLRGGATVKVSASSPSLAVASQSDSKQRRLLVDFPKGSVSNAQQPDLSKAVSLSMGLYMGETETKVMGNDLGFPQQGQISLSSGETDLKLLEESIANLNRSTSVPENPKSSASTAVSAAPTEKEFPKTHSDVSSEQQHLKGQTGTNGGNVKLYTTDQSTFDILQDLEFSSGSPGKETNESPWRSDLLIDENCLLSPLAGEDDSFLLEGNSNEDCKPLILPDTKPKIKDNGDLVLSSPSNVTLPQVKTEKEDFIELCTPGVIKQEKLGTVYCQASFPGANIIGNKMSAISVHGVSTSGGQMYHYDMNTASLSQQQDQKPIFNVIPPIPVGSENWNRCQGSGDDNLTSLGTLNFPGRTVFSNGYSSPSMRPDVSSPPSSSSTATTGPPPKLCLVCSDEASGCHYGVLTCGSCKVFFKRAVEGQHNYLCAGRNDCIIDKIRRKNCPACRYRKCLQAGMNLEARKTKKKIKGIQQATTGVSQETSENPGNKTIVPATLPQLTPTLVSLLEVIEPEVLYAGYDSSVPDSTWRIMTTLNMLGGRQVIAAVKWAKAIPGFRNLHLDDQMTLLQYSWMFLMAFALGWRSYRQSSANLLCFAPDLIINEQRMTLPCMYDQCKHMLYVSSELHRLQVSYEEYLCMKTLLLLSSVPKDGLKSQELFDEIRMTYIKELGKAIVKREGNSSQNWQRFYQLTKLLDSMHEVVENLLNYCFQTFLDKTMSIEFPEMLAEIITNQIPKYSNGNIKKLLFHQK
Assay: Glucocorticoid receptor competitive binding assay (fluorescence polarization, TAMRA-labeled dexamethasone probe)
Conditions: compounds of Formula (IA)
Procedure: Compounds of the invention were evaluated for binding to the steroid receptor by a fluorescence polarization competitive binding assay. Detailed descriptions for preparation of recombinant glucocorticoid receptor (GR) complex used in the assay is described in U.S. patent application Pub.
A. Glucocorticoid Receptor Competitive Binding Assay
Step 1. Characterization of the Fluorescent Probe
The wavelengths for maximum excitation and emission of the fluorescent probe should first be measured. An example of such a probe is rhodamine (TAMRA)-labeled dexamethasone.
The affinity of the probe for the steroid receptor was then determined in a titration experiment. The fluorescence polarization value of the probe in assay buffer was measured on an SLM-8100 fluorometer using the excitation and emission maximum values described above. Aliquots of expression vector lysate were added and fluorescence polarization was measured after each addition until no further change in polarization value was observed. Non-linear least squares regression analysis was used to calculate the dissociation constant of the probe from the polarization values obtained for lysate binding to the probe.
Step 2. Screening for Inhibitors of Probe Binding
This assay uses fluorescence polarization (FP) to quantitate the ability of test compounds to compete with tetramethyl rhodamine (TAMRA)-labeled dexamethasone for binding to a human glucocorticoid receptor (GR) complex prepared from an insect expression system. The assay buffer was: 10 mM TES, 50 mM KCl, 20 mM Na2MoO4.2H2O, 1.5 mM EDTA, 0.04% w/v CHAPS, 10% v/v glycerol, 1 mM dithiothreitol, pH 7.4. Test compounds were dissolved to 1 mM in neat DMSO and then further diluted to 10× assay concentration in assay buffer supplemented with 10% v/v DMSO. Test compounds were serially diluted at 10× assay concentrations in 10% DMSO-containing buffer in 96-well polypropylene plates. Binding reaction mixtures were prepared in 96-well black Dynex microtiter plates by sequential addition of the following assay components to each well: 15 μL of 10× test compound solution, 85 μL of GR-containing baculovirus lysate diluted 1:170 in assay buffer, and 50 μL of 15 nM TAMRA-labeled dexamethasone. Positive controls were reaction mixtures containing no test compound; negative controls (blanks) were reaction mixtures containing 0.7 μM to 2 μM dexamethasone. […] IC50 values were determined by iterative non-linear curve fitting of the FP signal data to a 4-parameter logistic equation.

SMILES: Cc1ccc(F)cc1C(C)(C)CC(O)(Cc1cc2cc(=O)n(C)cc2[nH]1)C(F)(F)F (stereo not drawn) [2-[4-(5-Fluoro-2-methylphenyl)-2-hydroxy-4-methyl-2-trifluoromethylpentyl]-6-methyl-1,6-dihydropyrrolo[2,3-c]pyridin-5-one]
activity in the GR binding assay: potent activity

SMILES: COc1ccc(F)cc1C(C)(C)CC(O)(Cn1ccc2cccnc21)C(F)(F)F (stereo not drawn) [1,1,1-Trifluoro-4-(5-fluoro-2-methoxyphenyl)-4-methyl-2-pyrrolo[2,3-b]pyridin-1-ylmethylpentan-2-ol]
activity in the GR binding assay: potent activity

SMILES: CC(C)(CC(O)(Cc1ccnc2ccccc12)C(F)(F)F)c1ccncc1 (stereo not drawn) [1,1,1-Trifluoro-4-methyl-4-pyridin-4-yl-2-quinolin-4-ylmethylpentan-2-ol]
activity in the GR binding assay: potent activity

SMILES: CN(C)C(=O)c1ccc2cc(CC(O)(CC(C)(C)c3cc(F)ccc3O)C(F)(F)F)[nH]c2c1 (stereo not drawn) [2-[4-(5-Fluoro-2-hydroxyphenyl)-2-hydroxy-4-methyl-2-trifluoromethylpentyl]-1H-indole-6-carboxylic acid dimethylamide]
activity in the GR binding assay: potent activity

SMILES: Cc1ccc(F)cc1C(C)(C)CC(O)(Cc1cc2cc(=O)[nH]cc2[nH]1)C(F)(F)F (stereo not drawn) [2-[4-(5-Fluoro-2-methylphenyl)-2-hydroxy-4-methyl-2-trifluoromethylpentyl]-1,6-dihydropyrrolo[2,3-c]pyridin-5-one]
activity in the GR binding assay: potent activity

SMILES: COc1ccc(F)cc1C(C)(C)CC(O)(Cc1cc(Cl)nc2ccc(Cl)cc12)C(F)(F)F (stereo not drawn) [2-(2,6-Dichloroquinolin-4-ylmethyl)-1,1,1-trifluoro-4-(5-fluoro-2-methoxyphenyl)-4-methylpentan-2-ol]
activity in the GR binding assay: potent activity

SMILES: COc1ccc(C)cc1C(C)(C)CC(O)(Cc1cc2c(C)cc(C#N)cc2[nH]1)C(F)(F)F (stereo not drawn) [2-[2-Hydroxy-4-(2-methoxy-5-methylphenyl)-4-methyl-2-trifluoromethylpentyl]-4-methyl-1H-indole-6-carbonitrile]
activity in the GR binding assay: potent activity

SMILES: COc1ccc(F)cc1C(C)(C)CC(O)(Cc1cc2nc(C)ncc2[nH]1)C(F)(F)F (stereo not drawn) [1,1,1-Trifluoro-4-(5-fluoro-2-methoxyphenyl)-4-methyl-2-(2-methyl-5H-pyrrolo[3 ,2-d]pyrimidin-6-ylmethyl)pentan-2-ol]
activity in the GR binding assay: potent activity

SMILES: CC(C)(CC(O)(Cc1cc2ccccc2[nH]1)C(F)(F)F)c1ccc(C(F)(F)F)cc1 (stereo not drawn) [1,1,1-Trifluoro-2-(1H-indol-2-ylmethyl)-4-methyl-4-(4-trifluoromethylphenyl)pentan-2-ol]
activity in the GR binding assay: potent activity

SMILES: COc1ccc(F)cc1C(C)(C)CC(O)(Cc1ccncc1)C(F)(F)F (stereo not drawn) [1,1,1-Trifluoro-4-(5-fluoro-2-methoxyphenyl)-4-methyl-2-pyridin-4-ylmethylpentan-2-ol]
activity in the GR binding assay: potent activity

SMILES: COc1ccc(F)cc1C(C)(C)CC(O)(Cc1cc2cc(C(=O)OCC[Si](C)(C)C)ccc2[nH]1)C(F)(F)F (stereo not drawn) [2-[4-(5-Fluoro-2-methoxyphenyl)-2-hydroxy-4-methyl-2-trifluoromethylpentyl]-1H-indole-5-carboxylic acid-2-trimethylsilanylethyl ester]
activity in the GR binding assay: potent activity

SMILES: CN(C)c1ccc(C(C)(C)CC(O)(Cc2cc3ccccc3[nH]2)C(F)(F)F)cc1 (stereo not drawn) [4-(4-Dimethylaminophenyl)-1,1,1-trifluoro-2-(1H-indol-2-ylmethyl)-4-methylpentan-2-ol]
activity in the GR binding assay: potent activity

SMILES: Cc1cccc2c(CC(O)(CC(C)(C)c3cc(F)ccc3O)C(F)(F)F)cc(Cl)nc12 (stereo not drawn) [2-[3-(2-Chloro-8-methylquinolin-4-ylmethyl)-4,4,4-trifluoro-3-hydroxy-1,1-dimethylbutyl]-4-fluorophenol]
activity in the GR binding assay: potent activity

SMILES: CC(C)(CC(O)(Cc1cc2cc(C(=O)O)ccc2[nH]1)C(F)(F)F)c1cc(Br)cc2c1OCC2 (stereo not drawn) [2-[4-(5-Bromo-2,3-dihydrobenzofuran-7-yl)-2-hydroxy-4-methyl-2-trifluoromethylpentyl]-1H-indole-5-carboxylic acid]
activity in the GR binding assay: potent activity

SMILES: CC(C)(CC(O)(Cc1cc2cc(-c3ccccc3)ccc2[nH]1)C(F)(F)F)c1cc(F)cc2c1OCC2 (stereo not drawn) [1,1,1-Trifluoro-4-(5-fluoro-2,3-dihydrobenzofuran-7-yl)-4-methyl-2-(5-phenyl-1H-indol-2-ylmethyl)pentan-2-ol]
activity in the GR binding assay: potent activity

SMILES: COc1ccc(F)cc1C(C)(C)CC(O)(Cc1cc2cnccc2s1)C(F)(F)F (stereo not drawn) [1,1,1-Trifluoro-4-(5-fluoro-2-methoxyphenyl)-4-methyl-2-thieno[3,2-c]pyridin-2-ylmethylpentan-2-ol]
activity in the GR binding assay: potent activity

SMILES: CC(C)(CC(O)(Cc1[nH]c2ccccc2c1Br)C(F)(F)F)c1cccc(F)c1 (stereo not drawn) [2-(3-Bromo-1H-indol-2-ylmethyl)-1,1,1-trifluoro4-(3-fluorophenyl)-4-methylpentan-2-ol]
activity in the GR binding assay: potent activity

The remaining lines, values ahead:

activity in the GR binding assay: potent activity
SMILES: COc1ccc(F)cc1C(C)(C)CC(O)(Cc1cc2ccc(C(=O)N(C)C)cc2[nH]1)C(F)(F)F (stereo not drawn) [2-[4-(5-Fluoro-2-methoxyphenyl)-2-hydroxy-4-methyl-2-trifluoromethylpentyl]-1H-indole-6-carboxylic acid dimethylamide]

activity in the GR binding assay: potent activity
SMILES: COc1ccc(F)cc1C(C)(C)CC(O)(Cc1cc2cc(C(=O)N3CCC(O)CC3)ccc2[nH]1)C(F)(F)F (stereo not drawn) [{2-[4-(5-Fluoro-2-methoxyphenyl)-2-hydroxy-4-methyl-2-trifluoromethylpentyl]-1H-indol-5-yl}(4-hydroxypiperidin-1-yl)methanone]

activity in the GR binding assay: potent activity
SMILES: CNC(=O)c1ccc2[nH]c(CC(O)(CC(C)(C)c3cc(F)ccc3OC)C(F)(F)F)cc2c1 (stereo not drawn) [2-[4-(5-Fluoro-2-methoxyphenyl)-2-hydroxy-4-methyl-2-trifluoromethylpentyl]-1H-indole-5-carboxylic acid methylamide]

activity in the GR binding assay: potent activity
SMILES: COc1ccc(F)cc1C(C)(C)CC(O)(Cc1cc2cc(C(=O)NCC(=O)O)ccc2[nH]1)C(F)(F)F (stereo not drawn) [({2-[4-(5-Fluoro-2-methoxyphenyl)-2-hydroxy-4-methyl-2-trifluoromethylpentyl]-1H-indole-5-carbonyl}amino)acetic acid]

activity in the GR binding assay: potent activity
SMILES: COc1ccc(F)cc1C(C)(C)CC(O)(Cc1cc2ccc(C(N)=O)cc2[nH]1)C(F)(F)F (stereo not drawn) [2-[4-(5-Fluoro-2-methoxyphenyl)-2-hydroxy-4-methyl-2-trifluoromethylpentyl]-1H-indole-6-carboxylic acid amide]

activity in the GR binding assay: potent activity
SMILES: CC(C)(CC(O)(Cc1cc2ccc(C(N)=O)cc2[nH]1)C(F)(F)F)c1cc(F)ccc1O (stereo not drawn) [2-[4-(5-Fluoro-2-hydroxyphenyl)-2-hydroxy-4-methyl-2-trifluoromethylpentyl]-1H-indole-6-carboxylic acid amide]

activity in the GR binding assay: potent activity
SMILES: COc1ccc(F)cc1C(C)(C)CC(O)(Cc1cc2cc(C(=O)N3CCCCC3)ccc2[nH]1)C(F)(F)F (stereo not drawn) [{2-[4-(5-Fluoro-2-methoxyphenyl)-2-hydroxy-4-methyl-2-trifluoromethylpentyl]-1H-indol-5-yl}piperidin-1-ylmethanone]
